The values below come from patent US20260184687A1, “DIHYDROINDENE DERIVATIVES AS MALT1 INHIBITORS” (C4X Discovery Limited, priority 2022, published 2026).

Each structure is given as a SMILES string.

The assay concerns the target T1, FL hMALT1 enzyme (Homo sapiens, UniProt Q9UDY8).
T1 sequence (Q9UDY8 1-824): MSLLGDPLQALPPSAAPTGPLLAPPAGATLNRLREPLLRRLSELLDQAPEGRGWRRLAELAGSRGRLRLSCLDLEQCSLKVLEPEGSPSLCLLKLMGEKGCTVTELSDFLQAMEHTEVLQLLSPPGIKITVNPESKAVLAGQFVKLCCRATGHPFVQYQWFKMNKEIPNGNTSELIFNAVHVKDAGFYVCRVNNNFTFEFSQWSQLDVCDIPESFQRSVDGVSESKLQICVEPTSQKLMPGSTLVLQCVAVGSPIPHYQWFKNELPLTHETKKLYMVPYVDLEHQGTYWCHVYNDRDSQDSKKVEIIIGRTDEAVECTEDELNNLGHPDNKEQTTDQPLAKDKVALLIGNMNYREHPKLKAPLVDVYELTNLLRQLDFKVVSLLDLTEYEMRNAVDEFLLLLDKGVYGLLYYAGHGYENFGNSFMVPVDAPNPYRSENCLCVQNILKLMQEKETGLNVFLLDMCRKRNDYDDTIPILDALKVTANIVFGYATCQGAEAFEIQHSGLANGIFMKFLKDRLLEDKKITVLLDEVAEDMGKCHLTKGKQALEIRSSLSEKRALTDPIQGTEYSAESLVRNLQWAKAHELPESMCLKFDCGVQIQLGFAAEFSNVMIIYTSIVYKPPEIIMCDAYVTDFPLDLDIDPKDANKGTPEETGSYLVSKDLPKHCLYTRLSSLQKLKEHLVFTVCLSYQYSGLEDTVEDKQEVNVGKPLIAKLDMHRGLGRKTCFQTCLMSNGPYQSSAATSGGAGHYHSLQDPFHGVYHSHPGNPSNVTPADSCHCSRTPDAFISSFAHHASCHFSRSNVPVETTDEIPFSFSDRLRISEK
The assay can be described thus: biochemical.
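Further: Cell-free protease assay: enzyme preincubated with compound 30 min at room temperature, then cleavage of fluorogenic Ac-LVSR-AMC substrate (100 µM) tracked by fluorescence (ex 360/em 460 nm).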

With `CN(C(=O)C1CS(=O)(=O)C1)[C@@H](c1ccc(NC2Cc3ccc(Cl)c(Cl)c3C2)cn1)C(F)(F)F` (stereo partly drawn) [Example 355, N-((1S)-1-(5-((4,5-Dichloro-2,3-dihydro-1H-inden-2-yl)amino)pyridin-2-yl)-2,2,2-trifluoroethyl)-N-methylthietane-3-carboxamide 1,1-dioxide], the IC50 amounted to 150 nM. That is a sub-micromolar value.

On to `CN(C(=O)C1COCC(=O)N1)[C@@H](c1ccc(NC2Cc3ccccc3C2(C)C)cn1)C(F)(F)F` (single isomer, unassigned) [Example 162], for which half-maximal inhibition (IC50) was put at 110 nM.

For `Cc1c(Cl)ccc2c1CC(Nc1ccc([C@H](N(C)C(=O)C3CCS(=O)(=O)CC3)C(F)(F)F)nc1)C2` (single isomer, unassigned) [Example 373], the IC50 stood at 490 nM.

The compound `CN1CC(=O)NCC1C(=O)N(C)[C@@H](c1ccc(N[C@H]2Cc3ccccc3C2(C)C)cn1)C(F)(F)F` (single isomer, unassigned) [Example 201] came in with an IC50 of 110 nM. This IC50 is about 4.5-fold lower than that of the compound before.

Turning to `CN(C(=O)C1CN(C(=O)C2CCOC2)C1)[C@@H](c1ccc(NC2Cc3ccc(Cl)c(Cl)c3C2)cn1)C(F)(F)F` (single isomer, unassigned) [Example 351], it took 590 nM to reach half-maximal inhibition (IC50).

On to `CC(=O)N[C@H]1CC[C@@H](C(=O)N(C)[C@@H](c2ccc(N[C@@H]3Cc4ccccc4C3(C)C)cn2)C(F)(F)F)C1` [Example 204, (1R,3S)-3-Acetamido-N—((S)-1-(5-(((R)-1,1-dimethyl-2,3-dihydro-1H-inden-2-yl)amino)pyridin-2-yl)-2,2,2-trifluoroethyl)-N-methylcyclopentane-1-carboxamide], for which half-maximal inhibition (IC50) was put at 220 nM.

In turn, `CN(C(=O)CC#N)[C@@H](c1ccc(NC2Cc3ccc(Cl)c(Cl)c3C2)cn1)C(F)(F)F` (single isomer, unassigned) [Example 349] yielded an IC50 of 1040 nM.

`CN(C(=O)C12CC(NS(C)(=O)=O)(C1)C2)[C@@H](c1ccc(NC2Cc3ccc(Cl)c(Cl)c3C2)cn1)C(F)(F)F` (single isomer, unassigned) [Example 322] displayed an IC50 of 310 nM.

On to `CN(C(=O)C1CN2CCC1CC2)[C@@H](c1ccc(NC2Cc3ccccc3C2(C)C)nc1)C(F)(F)F` (single isomer, unassigned) [Example 120], for which the IC50 worked out at 770 nM. This IC50 lies about 2.5-fold higher than the previous one.

`CNC(=O)C12C3C4C1C1C2C3C41C(=O)N(C)[C@@H](c1ccc(NC2Cc3ccc(Cl)cc3C2)cn1)C(F)(F)F` (stereo partly drawn) [Example 292, N^1-((1S)-1-(5-((5-Chloro-2,3-dihydro-1H-inden-2-yl)amino)pyridin-2-yl)-2,2,2-trifluoroethyl)-N^1,N^4-dimethylcubane-1,4-dicarboxamide] registered an IC50 of 840 nM.

The compound `CN(C(=O)C1CN(C(=O)C2CCO2)C1)[C@@H](c1ccc(NC2Cc3ccc(Cl)c(F)c3C2)cn1)C(F)(F)F` (single isomer, unassigned) [Example 386] returned an IC50 of 2670 nM.

For `CNC(=O)N1CC(C(=O)N(C)[C@@H](c2ccc(NC3Cc4ccc(Cl)c(Cl)c4C3)cn2)C(F)(F)F)C1` (single isomer, unassigned) [Example 334], it took 300 nM to reach half-maximal inhibition (IC50).

With `CN(C(=O)C1CCS(=O)(=O)CC1)[C@@H](c1ccc(NC2Cc3cc(F)c(F)c(F)c3C2)cn1)C(F)(F)F` (single isomer, unassigned) [Example 296], the IC50 is 1400 nM.

The compound `CN(C(=O)[C@H]1C[C@@H](O)C1)[C@@H](c1ccc(NC2Cc3ccc(Cl)c(F)c3C2)cn1)C(F)(F)F` (single isomer, unassigned) [Example 382] had an IC50 of 95 nM. This IC50 lies about 15-fold lower than the previous one.

Turning to `CN(C(=O)C1CCS(=O)(=O)CC1)[C@@H](c1ccc(NC2Cc3ccc(C(F)(F)F)cc3C2)cn1)C(F)(F)F` (single isomer, unassigned) [Example 255], the IC50 was determined as 110 nM.

`CN(C(=O)C1CN2CCC1CC2)[C@@H](c1ccc(NC2Cc3ccccc3C2(C)C)nc1)C(F)(F)F` (single isomer, unassigned) [Example 122] showed an IC50 of 1140 nM.

Compound `CN(C(=O)CN1CCCS1(=O)=O)[C@@H](c1ccc(NC2Cc3ccc(Cl)c(F)c3C2)cn1)C(F)(F)F` (single isomer, unassigned) [Example 361] had an IC50 of 7200 nM.

In the case of `CN(C(=O)C1CCS(=O)(=O)CC1)[C@@H](c1ccc(NC2Cc3cc(Cl)cc(F)c3C2)cn1)C(F)(F)F` (single isomer, unassigned) [Example 271], the IC50 is 3300 nM.

Regarding `CN(C(=O)CNS(C)(=O)=O)[C@@H](c1ccc(NC2Cc3ccc(Cl)c(Cl)c3C2)cn1)C(F)(F)F` (single isomer, unassigned) [Example 380], the IC50 was 1870 nM.

As for `CN1CCCC(C(=O)N(C)[C@@H](c2ccc(NC3Cc4ccccc4C3(C)C)cn2)C(F)(F)F)C1` (single isomer, unassigned) [Example 131], the IC50 was found to be 260 nM. Against the preceding compound, the IC50 is about 7.2-fold lower.

Take `CN(C(=O)C1CCS(=O)(=O)CC1)[C@@H](c1ccc(NC2Cc3cc(F)c(Br)cc3C2)cn1)C(F)(F)F` (stereo partly drawn) [Example 310, N-((1S)-1-(5-((5-Bromo-6-fluoro-2,3-dihydro-1H-inden-2-yl)amino)pyridin-2-yl)-2,2,2-trifluoroethyl)-N-methyltetrahydro-2H-thiopyran-4-carboxamide 1,1-dioxide]: the IC50 was determined as 430 nM. Compared with the last compound, the IC50 is about 1.7-fold higher.

In turn, `CN(C(=O)C1CCS(=O)(=O)CC1)[C@@H](c1ccc(NC2Cc3ccc(C4CC4)cc3C2)cn1)C(F)(F)F` (single isomer, unassigned) [Example 307] returned an IC50 of 220 nM.

Regarding `CN(C(=O)C1CC2(CCC(=O)N2)C1)[C@@H](c1ccc(NC2Cc3ccccc3C2(C)C)cn1)C(F)(F)F` (single isomer, unassigned) [Example 231], the IC50 was 110 nM.

In turn, `CN(C(=O)C1CCS(=O)(=O)CC1)[C@@H](c1ccc(NC2Cc3ccc(Cl)c(Cl)c3C2)nc1)C(F)(F)F` (single isomer, unassigned) [Example 344] had an IC50 of 310 nM. This IC50 is about 2.8-fold higher than that of the compound before.

`CN(C(=O)N1CCS(=O)(=O)CC1)[C@@H](c1ccc(NC2Cc3ccccc3C2(C)C)cn1)C(F)(F)F` (single isomer, unassigned) [Example 143]: the IC50 was 680 nM.

`CN(C(=O)C1CCS(=O)(=O)CC1)[C@@H](c1ccc(NC2Cc3cccc(Br)c3C2)cn1)C(F)(F)F` (stereo partly drawn) [Example 237, N-((1S)-1-(5-((4-Bromo-2,3-dihydro-1H-inden-2-yl)amino)pyridin-2-yl)-2,2,2-trifluoroethyl)-N-methyltetrahydro-2H-thiopyran-4-carboxamide 1,1-dioxide]: the IC50 came out at 110 nM.

As for `CC(=O)N1CC(C(=O)N(C)[C@@H](c2ccc(NC3Cc4ccc(Cl)c(Cl)c4C3)cn2)C(F)(F)F)C1` (single isomer, unassigned) [Example 376], the IC50 was found to be 1200 nM.

Take `CN(C(=O)C1CCS(=O)(=O)CC1)[C@@H](c1ccc(NC2Cc3ccc(OC(F)F)cc3C2)cn1)C(F)(F)F` (stereo partly drawn) [Example 324, N-((1S)-1-(5-((5-(Difluoromethoxy)-2,3-dihydro-1H-inden-2-yl)amino)pyridin-2-yl)-2,2,2-trifluoroethyl)-N-methyltetrahydro-2H-thiopyran-4-carboxamide 1,1-dioxide]: it took 1000 nM to reach half-maximal inhibition (IC50). The IC50 values of the last two compounds are within 1.5-fold of each other.

`CN(C(=O)C1CC2(CCC(=O)N2)C1)[C@@H](c1ccc(NC2Cc3ccc(Cl)c(Cl)c3C2)cn1)C(F)(F)F` (single isomer, unassigned) [Example 342]: the 50% inhibitory concentration (IC50) was found to be 1320 nM. The IC50 values of the last two compounds are within 1.5-fold of each other.

`CN(C(=O)[C@H]1CCC(=O)NC1)[C@@H](c1ccc(NC2Cc3ccc(Cl)c(Cl)c3C2)cn1)C(F)(F)F` (single isomer, unassigned) [Example 320] gave an IC50 of 750 nM. Compared with the last compound, the IC50 is about 1.8-fold lower.

As usually defined, the IC50 is the concentration that inhibits the measured activity by half.
